Values of other authors in patent publication US10683273B2, “Compounds as DNA probes, methods and applications thereof” (JAWAHARLAL NEHRU CENTRE FOR ADVANCED SCIENTIFIC RESEARCH, priority 2015, dated 2020).

Assays:
[1] = system: DNA; details: literature values (footnotes a, b); cited from earlier work
[2] = literature values (footnotes a, b); cited from earlier work

Row | Structure (SMILES) | Stokes shift in presence of DNA [1] [nm] | Stokes shift in absence of DNA [2] [nm]
1 | CN1C(=Cc2cc[n+](C)c3ccccc23)Oc2ccccc21 [Oxazole yellow (YO), Oxazole yellow] | 19 | 100
2 | CN(C)CCCN(CCCN(C)C)c1cc(C=C2Sc3ccccc3N2C)c2ccccc2[n+]1-c1ccccc1 [Picogreen] | 21 | 30
3 | CCCN(CCCN(C)C)c1cc(/C=C2/Sc3ccccc3N2C)c2ccccc2[n+]1-c1ccccc1 [SYBR Green 1] | 26 | 36
4 | CN1/C(=C/c2cc[n+](CCC[N+](C)(C)CCC[N+](C)(C)CCC[n+]3ccc(/C=C4\Sc5ccccc5N4C)c4ccccc43)c3ccccc23)Sc2ccccc21.[I-].[I-].[I-].[I-] [TOTO-1] | 19 | 149
5 | CN1C(=Cc2cc[n+](C)c3ccccc23)Sc2ccccc21 [Thiazole orange (TO), Thiazole orange] | 18 | 139
6 | CN1/C(=C/c2cc[n+](CCC[N+](C)(C)CCC[N+](C)(C)CCC[n+]3ccc(/C=C4/Oc5ccccc5N4C)c4ccccc43)c3ccccc23)Oc2ccccc21.[I-].[I-].[I-].[I-] [YOYO-1] | 20 | 106
